# Assays:
# Type in all cases: cell-based, human
# [1] = test system: PC-9; test: Effect on cell apoptosis (Western Blot, PARP and Caspase 3 cleavage), PC-9; details: PC-9 (EGFR delE746_A750), 24 hours
# From the text: In order to confirm whether the death of cells is through apoptosis or necrosis after administration of drugs, non-small cell lung cancer cell A549 (expressing wild-type EGFR gene), non-small cell lung cancer cell line H1975 (expressing EGFR L858R/T790M double mutant gene), non-small cell lung cancer cell line H3255 (expressing EGFR L858R mutant gene), non-small cell lung cancer cell line H3122 (expressing ALK gene) cell line, and non-small cell lung cancer cell line PC-9 (expressing EGFR delE746_A750 mutant gene) were tested for effect of Compound 1 on cleavage of poly ADP-ribose polymerase PARP which is a DNA repair enzyme and Caspase 3, which were closely related to cell apoptosis. […] Western Blot was used to detect the effect of various concentrations of drugs at various time points on cleavage of poly ADP-ribose polymerase PARP which is a DNA repair enzyme and Caspase 3.
# [2] = test system: EGFR protein (wild-type EGFR, A549); test: Effect on signaling pathway in cells, A549; details: 0.03-3 μM, 4 h
# From the text: In four cell lines (all purchased from ATCC) including non-small cell lung cancer cell line A549 (expressing wild-type EGFR gene), non-small cell lung cancer cell line H1975 (expressing EGFR L858R/T790M double mutant gene), non-small cell lung cancer cell line H3255 (expressing EGFR L858R mutant gene) and non-small cell lung cancer cell line PC-9 (expressing EGFR delE746_A750 mutant gene), the effect of Compound 1 on EGFR or other protein kinases related to signaling pathways of EGFR such as Stat3, AKT, ErK, eIF4E, 4EBP1, P70S6K was assessed by assaying a number of cellular biochemical and functional endpoints. […] The effect of Compound 1 on phosphorylation of Stat3Y705, AKT T308, AKT 5473, Erk T202/204, EGFR Y1068, P70S6K Thr389, eIF4E Ser209, Erk T202/204, 4EBP1 (Thr37/46) in these cell lines was assayed (FIGS. 1a to 1d).
# [3] = test system: A549; test: Effect on cell cycle (PI staining, flow cytometer), A549; details: A549 (wild-type EGFR), 24 hours and 48 hours
# From the text: In order to study which growth phase the cell was halted after administration of the drugs, five cell lines including non-small cell lung cancer cell line A549 (expressing wild-type EGFR gene), non-small cell lung cancer cell line H1975 (expressing EGFR L858R/T790M double mutant gene), non-small cell Lung cancer cell line PC-9 (expressing EGFR delE746_A750 mutant gene), non-small cell lung cancer cell line H3255 (expressing EGFR L858R mutant gene) and non-small cell lung cancer cell NCI-H3122 (expressing ALK gene) were tested for effect of Compound 1 on cell cycle distribution. Two cell lines including non-small cell lung cancer cell NCI-H3122 (expressing ALK gene) and non-small cell lung cancer cell H1975 (expressing EGFR L858R/T790M double mutant gene) were tested for effect of Compound 10 on cell cycle distribution. […]
compound,measurement,setting,value
"C=CC(=O)Nc1cc(Nc2ncc(Cl)c(Nc3ccccc3S(=O)(=O)C(C)C)n2)c(OC)cc1N1CCN(CC)CC1 [Compound 1, N-(5-(5-chloro-4-(2-(isopropylsulfonyl)phenylamino)pyrimidin-2-ylamino)-2-(4-ethylpiperazin-1-yl)-4-methoxyphenyl)acrylamide]",concentration at which evident cleavage of PARP and Caspase 3 could be observed,[1],0.3 µM
same,"effect on phosphorylation of EGFR protein and of STAT3, S6K, AKT, ERK, eIF4E",[2],little effect
same,effect on cell cycle,[3],certain effect

# — patent US10350210B2, “EGFR and ALK dual inhibitor” (PRECEDO PHARMACEUTICALS CO., LTD, priority 2015, dated 2019)
